# Experimental data reported in patent publication US10865207B2, “Compounds for imaging Tau protein aggregates” (AC IMMUNE S.A., priority 2016, dated 2020).
# Entries after “also recorded” stand apart in the source; their conditions may differ. Marks after values point to notes of the source that are not given here.
# Tests used:
# [1] = biological target: Tau (Homo sapiens, UniProt P10636); experiment: Competition binding to Tau in human AD brain homogenate with 18F-labeled Tau binder; design: High affinity to Tau (grade): key: −: poor; ∘: moderate; +: good; ++: very good; +++: excellent; settings: for IC50: human AD brain homogenate, determined with non-radioactive fluorine-19 derivatives; for high Tau binding (grade): key: −: poor; ∘: moderate; +: good; ++: very good; +++: excellent
# Chain of Tau (P10636 623-708 limits assumed): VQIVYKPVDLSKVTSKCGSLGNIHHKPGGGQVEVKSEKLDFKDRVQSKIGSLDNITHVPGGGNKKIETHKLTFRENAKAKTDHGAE
# Description: 20 μg of human Alzheimer disease brain homogenate was incubated with a dilution series of each test compound (1000 to 0.06 nM) in the presence of 800 Bq of ^18F-labeled Tau binder. The samples were shaken at 110 rpm for 45 min at 37° C. Samples were then filtered through GF/B 96 well filter plates and washed twice with 300 μL assay buffer (PBS containing 0.1% BSA and 2% DMSO). Thereafter, filter plates were sealed and a Fuji Film Imaging Plate (BAS-SR2025) was placed on top. The imaging plate was analyzed after overnight exposition using a Fuji Film BAS-5000. Non-specific signal was determined with samples containing ^18F-labeled Tau-reference binder in the presence of assay buffer without brain substrate and competitor. […] The unblocked ^18F-labeled Tau-binder signal was defined as total binding. IC50 values were calculated by Prism V6 (GraphPad) setting total binding to 100%.
# [2] = biological target: T1, MAO A (Mus musculus, UniProt Q64133); experiment: MAO A 18F-FEH competition assay in mouse brain homogenate; format: binding; design: Low affinity to MAO A (grade), mouse brain homogenate: key to the marks not given beside the values; settings: for IC50: 18F-FEH competition, fluorine-19 derivatives
# T1 construct: from tissue; host or cells: whole mouse brain homogenate
# T1 sequence (Q64133 1-526): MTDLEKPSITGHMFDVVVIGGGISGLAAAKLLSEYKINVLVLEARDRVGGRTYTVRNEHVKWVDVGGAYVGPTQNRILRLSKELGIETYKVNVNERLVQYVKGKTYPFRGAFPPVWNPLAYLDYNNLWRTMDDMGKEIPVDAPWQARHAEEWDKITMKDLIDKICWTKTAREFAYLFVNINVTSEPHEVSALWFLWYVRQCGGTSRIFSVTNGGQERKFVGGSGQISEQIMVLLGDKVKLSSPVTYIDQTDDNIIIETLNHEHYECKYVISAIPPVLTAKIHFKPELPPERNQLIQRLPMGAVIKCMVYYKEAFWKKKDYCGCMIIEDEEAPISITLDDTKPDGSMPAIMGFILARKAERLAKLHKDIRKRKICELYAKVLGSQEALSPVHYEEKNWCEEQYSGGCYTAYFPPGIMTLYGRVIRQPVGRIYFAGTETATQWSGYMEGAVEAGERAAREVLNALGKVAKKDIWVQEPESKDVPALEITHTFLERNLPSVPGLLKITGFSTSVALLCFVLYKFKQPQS
# [3] = test system: Tau (AD brain homogenate vs healthy control brain homogenate); experiment: Tracer signal-to-noise ratio, AD brain homogenate vs healthy control brain homogenate; format: binding, human; design: High signal to noise (grade), AD brain / HC brain homogenate / High signal to noise (further homogenates) (grade): key to the marks not given beside the values
# [4] = test system: Tau (AD brain vs mouse brain homogenate); experiment: Tracer signal ratio, AD brain vs mouse brain homogenate; format: binding, human; design: High signal to noise (grade), AD brain / mouse brain homogenate: key: −: poor; ∘: moderate; +: good; ++: very good; +++: excellent
# [5] = test system: Tau in AD brain sections; experiment: Autoradiography on human AD brain slices; format: binding
# Description: (§1) 18 micron thick frozen human brain slices and 6 micron thick human FFPE brain slices were examined via autoradiography. Brain sections were equilibrated for at least 1 h in 1×PBS solution prior to use in the experiment. Each brain section was covered with a solution of the ^18F-labeled tracer (200 Bq/μl, 500 μl) in 1×PBS. For blocking experiments with the corresponding ^19F-compound, an excess of the blocking compound (10 μM) was mixed with the ^18F-compound. The brain sections were allowed to incubate with the tracer solution at room temperature for 1 h, drained afterwards and placed in a slide holder. The slides were then washed sequentially with 1×PBS for 1 min; 70% EtOH in 1×PBS for 2 min; 30% EtOH in 1×PBS for 2 min; and 1×PBS for 1 min. The slides were allowed to air-dry before being placed on Fuji imaging plates […] for overnight exposure. The imaging plates were scanned and the signal was measured using Fuji software to produce an autoradiographic image of the brain section.
# [6] = biological target: T2, Tau in PSP brain sections (Homo sapiens, UniProt P10636); experiment: Autoradiography on human PSP brain slices; format: binding
# T2 construct: frozen human brain slices; from tissue; host or cells: human PSP brain slices
# T2 sequence (P10636 1-441 isoform P10636-8): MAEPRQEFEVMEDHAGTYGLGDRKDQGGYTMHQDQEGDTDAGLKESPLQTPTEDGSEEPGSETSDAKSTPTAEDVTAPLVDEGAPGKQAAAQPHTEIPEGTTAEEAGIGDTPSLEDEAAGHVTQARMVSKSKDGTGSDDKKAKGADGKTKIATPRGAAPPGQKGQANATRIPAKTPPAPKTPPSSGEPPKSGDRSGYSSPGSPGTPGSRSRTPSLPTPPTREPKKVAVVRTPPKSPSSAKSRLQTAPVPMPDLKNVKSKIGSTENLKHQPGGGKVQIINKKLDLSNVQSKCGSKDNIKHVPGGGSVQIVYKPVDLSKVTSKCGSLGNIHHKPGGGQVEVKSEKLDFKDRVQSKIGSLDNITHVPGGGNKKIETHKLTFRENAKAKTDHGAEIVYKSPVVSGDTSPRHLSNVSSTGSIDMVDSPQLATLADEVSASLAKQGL
# Description: as §1
# [7] = biological target: T3, Tau in PiD brain sections (Homo sapiens, UniProt P10636); experiment: Autoradiography on human PiD brain slices; format: binding
# T3 construct: frozen human brain slices; from tissue; host or cells: human PiD brain slices
# T3 sequence (P10636 1-410 isoform P10636-5): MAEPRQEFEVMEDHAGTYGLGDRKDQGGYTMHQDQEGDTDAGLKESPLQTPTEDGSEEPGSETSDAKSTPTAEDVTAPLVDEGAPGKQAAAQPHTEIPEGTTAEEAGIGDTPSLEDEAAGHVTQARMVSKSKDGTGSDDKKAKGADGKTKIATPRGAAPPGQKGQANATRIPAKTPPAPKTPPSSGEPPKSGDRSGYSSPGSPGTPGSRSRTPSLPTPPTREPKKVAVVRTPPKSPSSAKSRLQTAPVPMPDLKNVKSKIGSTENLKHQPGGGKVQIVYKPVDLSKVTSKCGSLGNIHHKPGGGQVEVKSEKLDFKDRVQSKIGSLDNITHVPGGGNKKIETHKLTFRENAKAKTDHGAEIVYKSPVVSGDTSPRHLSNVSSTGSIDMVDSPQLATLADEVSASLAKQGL
# Description: as §1
# [8] = Autoradiography on healthy control (HC) human brain slices; format: binding
# Description: as §1
# [9] = test system: Tau pathology; experiment: Human imaging study (PET in AD subjects and non-demented controls); format: in vivo
# Description: In a clinical trial, subjects with AD as well as non-demented controls (NDC) underwent dynamic PET imaging for over 3 h following 370 MBq bolus injection of ^18F-4.
# [10] = further AD brain homogenate vs HC brain homogenate
compound,measurement,setting,value
Fc1ncccc1-c1ccc2c(n1)[nH]c1ccncc12 [Compound F-4],high Tau binding (grade),"[1]; Table 2, fluorine-19 derivatives",+++
same,IC50,[1],< 2 nM
same,IC50,[2],> 1000 nM
same,low MAO A binding (grade),"[2]; Table 2, IC50 in mouse brain homogenate",+++
[18F]c1ncccc1-c1ccc2c(n1)[nH]c1ccncc12 [Compound ^18F-4],High affinity to Tau (grade),"[1]; Table 1, IC50 in AD brain homogenate, fluorine-19 derivatives",+++
same,IC50,[1],< 2 nM
same,fold higher signal to noise ratio than 18F-1,[3]; AD vs HC brain homogenate,7.7 fold
same,High signal to noise (further homogenates) (grade),[3]; Table 1,+++
same,"High signal to noise (grade), AD brain / HC brain homogenate",[3]; Table 1,+++
same,fold higher signal to noise ratio than 18F-1,[3]; [10],7.2-11 fold
same,fold higher signal to noise ratio than 18F-2,[3]; [10],3.7-4.0 fold
same,Ratio of tracer signal AD brain / signal in mouse brain homogenate,[4]; 18F tracer,15.1^a)
same,fold higher signal to noise ratio than 18F-1,[4]; AD brain homogenate vs whole mouse brain homogenate,6.9 fold
same,"High signal to noise (grade), AD brain / mouse brain homogenate",[4]; Table 1,+++
same,Autoradiography signal in AD brain sections (in words),[5]; blockable with excess cold compound,strong punctated staining; also recorded: Specific binding
same,Binding to AD brain (Braak stage 1/3) by autoradiography (grade),[5]; in house data,+++^a)
same,Binding to AD brain (Braak stage 5/6) by autoradiography (grade),[5]; in house data,+++^a)
same,Autoradiography signal in PSP brain sections (in words),[6],strong signal
same,Binding to PSP brain slices by autoradiography (grade),[6]; in house data,+++^a)
same,Autoradiography signal in PiD brain sections (in words),[7],strong signal
same,Binding to PiD brain slices by autoradiography (grade),[7]; in house data,+++^a)
same,Autoradiography signal in healthy control (HC) sections (in words),[8],no specific signal was visible
same,IC50,[2],1300 nM
same,"Low affinity to MAO A (grade), mouse brain homogenate",[2]; Table 1,+++
same,fold higher MAO A IC50 than compound 18F-1,[2]; whole mouse brain homogenate,59 fold
same,fold higher MAO A IC50 than compound 18F-2,[2]; whole mouse brain homogenate,2.7 fold
same,brain uptake in human subjects (in words),"[9]; 370 MBq bolus, dynamic PET",good brain uptake
same,washout from non-target brain regions in human subjects (in words),"[9]; 370 MBq bolus, dynamic PET",fast washout
same,uptake in AD subjects (in words),[9]; AD subjects,"focal asymmetric uptake was evident in temporal, parietal and frontal lobes"
same,"uptake in choroid plexus, basal ganglia, striatum, amygdala, meninges in non-demented controls (in words)",[9]; NDC subjects,no increased uptake
